One may read the inhibition as the drop in the measured response relative to a control, in per cent. Low values mean a weak effect, high ones a strong effect. In general, IC50 refers to the concentration that gives 50% inhibition. A lower IC50 goes with greater potency in that assay. As usually defined, the EC50 is the concentration giving half of the maximal effect.

Molecules are shown by their SMILES. Residues, ends and D or L forms follow the SMILES beside them.

Test [1] addresses T1, Substance-K receptor (Homo sapiens) (UniProt P21452).
T1 sequence (whole entry): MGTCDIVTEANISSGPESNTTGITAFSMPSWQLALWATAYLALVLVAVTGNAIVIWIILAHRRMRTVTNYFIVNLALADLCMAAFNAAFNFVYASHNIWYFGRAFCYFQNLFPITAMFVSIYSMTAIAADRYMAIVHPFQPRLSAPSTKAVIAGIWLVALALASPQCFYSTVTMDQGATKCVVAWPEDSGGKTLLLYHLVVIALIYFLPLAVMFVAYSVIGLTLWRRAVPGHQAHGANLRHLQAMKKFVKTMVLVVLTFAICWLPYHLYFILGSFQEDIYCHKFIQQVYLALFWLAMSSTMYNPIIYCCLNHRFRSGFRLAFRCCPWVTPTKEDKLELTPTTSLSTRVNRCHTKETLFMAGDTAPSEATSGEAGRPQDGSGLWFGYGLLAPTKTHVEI
The test can be described thus: Displacement of [125I]-NKA from NK2R (unknown origin) transfected in CHO cells at 10 uM by gamma counting analysis. It is filed as cell-based. Background: Loss of bound radioactivity is the signal in a displacement assay; it reports binding, not function.

The target of test [2] is T2, Neuromedin-K receptor (Homo sapiens, UniProt P29371).
T2 sequence (P29371 whole entry): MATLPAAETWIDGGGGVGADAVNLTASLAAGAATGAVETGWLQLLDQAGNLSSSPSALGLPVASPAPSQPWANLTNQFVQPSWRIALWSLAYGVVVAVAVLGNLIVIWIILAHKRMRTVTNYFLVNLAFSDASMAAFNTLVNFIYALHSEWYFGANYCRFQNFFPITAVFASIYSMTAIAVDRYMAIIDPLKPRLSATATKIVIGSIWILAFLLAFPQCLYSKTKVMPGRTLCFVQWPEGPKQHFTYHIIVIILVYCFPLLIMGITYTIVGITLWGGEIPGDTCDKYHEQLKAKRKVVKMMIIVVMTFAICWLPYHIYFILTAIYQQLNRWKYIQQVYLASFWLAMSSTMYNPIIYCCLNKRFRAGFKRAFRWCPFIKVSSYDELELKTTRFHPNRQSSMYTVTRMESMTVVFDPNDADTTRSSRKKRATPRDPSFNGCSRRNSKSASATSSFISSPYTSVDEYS
The test can be described thus: Displacement of ([125I]-His3, MePhe7)-NKB from NK3R (unknown origin) transfected in CHO cells by gamma counting analysis. It is filed as cell-based.

Test [3] concerns the target T2, Neuromedin-K receptor. The test can be described thus: Agonist activity at NK3R (unknown origin) transfected in CHO cells assessed as calcium influx […]. It is filed as functional, cell-based.
For test [4], the target named is Substance-P receptor (Homo sapiens) (UniProt P25103). The test can be described thus: Displacement of [125I]-BH-SP from NK1R (unknown origin) transfected in CHO cells at 10 uM by gamma counting analysis. It is filed as cell-based.
Sequence of Substance-P receptor (Homo sapiens) (P25103 whole entry): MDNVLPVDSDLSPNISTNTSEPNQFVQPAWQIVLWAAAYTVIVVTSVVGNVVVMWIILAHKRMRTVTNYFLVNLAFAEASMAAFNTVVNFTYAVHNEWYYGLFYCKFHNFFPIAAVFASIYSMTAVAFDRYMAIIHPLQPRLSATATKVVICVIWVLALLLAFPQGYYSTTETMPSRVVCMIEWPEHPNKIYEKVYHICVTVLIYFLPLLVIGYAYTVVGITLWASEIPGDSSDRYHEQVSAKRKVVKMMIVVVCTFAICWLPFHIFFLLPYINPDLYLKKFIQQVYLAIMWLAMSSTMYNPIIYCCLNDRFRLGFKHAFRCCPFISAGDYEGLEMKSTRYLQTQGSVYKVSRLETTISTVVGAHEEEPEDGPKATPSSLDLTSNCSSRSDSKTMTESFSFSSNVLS

For the compound `CSCC[C@H](NC(=O)[C@H](CC(C)C)NC(=O)CNC(=O)[C@H](Cc1ccccc1)N(C)C(=O)[C@H](Cc1ccccc1)NC(=O)[C@H](CCCCN)NC(=O)[C@H](CC(=O)O)NC(=O)[C@H](Cc1cnc[nH]1)NC(=O)[C@H](CCSC)NC(=O)[C@@H](N)CC(=O)O)C(N)=O` (HELM PEPTIDE1{D.M.H.D.K.F.[meF].G.L.M.[am]}$$$$V2.0), the results for the inhibition in test [1] and in test [4] were 35% and 40%, respectively. For the same compound, the IC50 in test [2] came out at 11 nM. In test [3], the EC50 was determined as 0.026 nM.
On the same counts, the results for `CSCC[C@H](NC(=O)[C@H](CC(C)C)NC(=O)CNC(=O)[C@H](Cc1ccccc1)N(C)C(=O)[C@H](Cc1ccccc1)NC(=O)[C@H](CC(C)C)NC(=O)[C@H](CC(=O)O)NC(=O)[C@H](Cc1cnc[nH]1)NC(=O)[C@H](CCSC)NC(=O)[C@@H](N)CC(=O)O)C(N)=O` (HELM PEPTIDE1{D.M.H.D.L.F.[meF].G.L.M.[am]}$$$$V2.0) are 29%, less than 10%, 6.9 nM and 0.051 nM.
The matching figures for `CSCC[C@H](NC(=O)[C@H](CC(C)C)NC(=O)CNC(=O)[C@H](Cc1ccccc1)N(C)C(=O)[C@H](Cc1ccccc1)NC(=O)[C@H](CCSC)NC(=O)[C@H](CC(=O)O)NC(=O)[C@H](Cc1cnc[nH]1)NC(=O)[C@H](CCSC)NC(=O)[C@@H](N)CC(=O)O)C(N)=O` (HELM PEPTIDE1{D.M.H.D.M.F.[meF].G.L.M.[am]}$$$$V2.0): 41%, less than 10%, 1.7 nM and 0.032 nM.
As for `CSCC[C@H](NC(=O)[C@H](CC(C)C)NC(=O)CNC(=O)[C@H](Cc1ccccc1)N(C)C(=O)[C@H](Cc1ccccc1)NC(=O)[C@H](CC(N)=O)NC(=O)[C@H](CC(=O)O)NC(=O)[C@H](Cc1cnc[nH]1)NC(=O)[C@H](CCSC)NC(=O)[C@@H](N)CC(=O)O)C(N)=O` (HELM PEPTIDE1{D.M.H.D.N.F.[meF].G.L.M.[am]}$$$$V2.0), the results for the inhibition in test [1] and in test [4] were 10% and less than 10%, respectively. In test [2], this compound came in with an IC50 of 18 nM. The EC50 in test [3] was found to be 0.036 nM.
On the same counts, the results for `CSCC[C@H](NC(=O)[C@H](CC(C)C)NC(=O)CNC(=O)[C@H](Cc1ccccc1)N(C)C(=O)[C@H](Cc1ccccc1)NC(=O)[C@@H]1CCCN1C(=O)[C@H](CC(=O)O)NC(=O)[C@H](Cc1cnc[nH]1)NC(=O)[C@H](CCSC)NC(=O)[C@@H](N)CC(=O)O)C(N)=O` (HELM PEPTIDE1{D.M.H.D.P.F.[meF].G.L.M.[am]}$$$$V2.0) are 38%, less than 10%, 45 nM and 0.041 nM.
As for `CSCC[C@H](NC(=O)[C@H](CC(C)C)NC(=O)CNC(=O)[C@H](Cc1ccccc1)N(C)C(=O)[C@H](Cc1ccccc1)NC(=O)[C@H](CCC(N)=O)NC(=O)[C@H](CC(=O)O)NC(=O)[C@H](Cc1cnc[nH]1)NC(=O)[C@H](CCSC)NC(=O)[C@@H](N)CC(=O)O)C(N)=O` (HELM PEPTIDE1{D.M.H.D.Q.F.[meF].G.L.M.[am]}$$$$V2.0), the inhibition is 21% in test [1] and 24% in test [4]. In test [2], this compound yielded an IC50 of 4.6 nM. In addition, the EC50 in test [3] worked out at 0.043 nM.
With `CSCC[C@H](NC(=O)[C@H](CC(C)C)NC(=O)CNC(=O)[C@H](Cc1ccccc1)N(C)C(=O)[C@H](Cc1ccccc1)NC(=O)[C@H](CO)NC(=O)[C@H](CC(=O)O)NC(=O)[C@H](Cc1cnc[nH]1)NC(=O)[C@H](CCSC)NC(=O)[C@@H](N)CC(=O)O)C(N)=O` (HELM PEPTIDE1{D.M.H.D.S.F.[meF].G.L.M.[am]}$$$$V2.0), the inhibition in test [1] was 31%; in test [4] it was less than 10%. Further, in test [2], the IC50 came to 3.6 nM. In test [3], the EC50 was 0.04 nM.
Consider `CSCC[C@H](NC(=O)[C@H](CC(C)C)NC(=O)CNC(=O)[C@H](Cc1ccccc1)N(C)C(=O)[C@H](Cc1ccccc1)NC(=O)[C@@H](NC(=O)[C@H](CC(=O)O)NC(=O)[C@H](Cc1cnc[nH]1)NC(=O)[C@H](CCSC)NC(=O)[C@@H](N)CC(=O)O)[C@@H](C)O)C(N)=O` (HELM PEPTIDE1{D.M.H.D.T.F.[meF].G.L.M.[am]}$$$$V2.0), for which the inhibition in test [1] is 19%; in test [4], less than 10%. The same compound came in with an IC50 in test [2] of 4.3 nM. Also, the EC50 in test [3] turned out to be 0.046 nM.
The matching figures for `CSCC[C@H](NC(=O)[C@H](CC(C)C)NC(=O)CNC(=O)[C@H](Cc1ccccc1)N(C)C(=O)[C@H](Cc1ccccc1)NC(=O)[C@@H](NC(=O)[C@H](CC(=O)O)NC(=O)[C@H](Cc1cnc[nH]1)NC(=O)[C@H](CCSC)NC(=O)[C@@H](N)CC(=O)O)C(C)C)C(N)=O` (HELM PEPTIDE1{D.M.H.D.V.F.[meF].G.L.M.[am]}$$$$V2.0): 29%, less than 10%, 1.5 nM and 0.065 nM.
The matching figures for `CSCC[C@H](NC(=O)[C@H](CC(C)C)NC(=O)CNC(=O)[C@H](Cc1ccccc1)N(C)C(=O)[C@H](Cc1ccccc1)NC(=O)[C@H](Cc1c[nH]c2ccccc12)NC(=O)[C@H](CC(=O)O)NC(=O)[C@H](Cc1cnc[nH]1)NC(=O)[C@H](CCSC)NC(=O)[C@@H](N)CC(=O)O)C(N)=O` (HELM PEPTIDE1{D.M.H.D.W.F.[meF].G.L.M.[am]}$$$$V2.0): 79%, less than 10%, 1.8 nM and 0.28 nM.
The matching figures for `CSCC[C@H](NC(=O)[C@H](CC(C)C)NC(=O)CNC(=O)[C@H](Cc1ccccc1)N(C)C(=O)[C@H](Cc1ccccc1)NC(=O)[C@H](Cc1ccc(O)cc1)NC(=O)[C@H](CC(=O)O)NC(=O)[C@H](Cc1cnc[nH]1)NC(=O)[C@H](CCSC)NC(=O)[C@@H](N)CC(=O)O)C(N)=O` (HELM PEPTIDE1{D.M.H.D.Y.F.[meF].G.L.M.[am]}$$$$V2.0): 51%, less than 10%, 1.5 nM and 0.072 nM.
Consider `CSCC[C@H](NC(=O)[C@H](CC(C)C)NC(=O)CNC(=O)[C@H](Cc1ccccc1)N(C)C(=O)[C@H](Cc1ccccc1)NC(=O)[C@H](CC(=O)O)NC(=O)[C@H](CC(=O)O)NC(=O)CNC(=O)[C@@H](NC(=O)[C@@H](N)CC(=O)O)[C@@H](C)O)C(N)=O` (HELM PEPTIDE1{D.T.G.D.D.F.[meF].G.L.M.[am]}$$$$V2.0), for which the inhibition in test [1] and in test [4] was less than 10% throughout. The compound also came in with an IC50 in test [2] of 81 nM. The EC50 in test [3] was determined as 0.11 nM.
Turning to `CSCC[C@H](NC(=O)[C@H](CC(C)C)NC(=O)CNC(=O)[C@H](Cc1ccccc1)N(C)C(=O)[C@H](Cc1ccccc1)NC(=O)[C@H](CC(=O)O)NC(=O)[C@H](CC(=O)O)NC(=O)[C@H](CO)NC(=O)[C@H](CCCCN)NC(=O)[C@@H]1CCCN1C(=O)[C@@H](NC(=O)[C@@H](N)CC(=O)O)C(C)C)C(N)=O` (HELM PEPTIDE1{D.V.P.K.S.D.D.F.[meF].G.L.M.[am]}$$$$V2.0), the inhibition in test [1] and in test [4] was less than 10% in each case. In test [2], this compound yielded an IC50 of 27 nM. Moreover, in test [3], the EC50 is 0.085 nM.
For the compound `CSCC[C@H](NC(=O)[C@H](CC(C)C)NC(=O)CNC(=O)[C@H](Cc1ccccc1)N(C)C(=O)[C@H](Cc1ccccc1)NC(=O)[C@H](CCC(N)=O)NC(=O)[C@H](CC(=O)O)NC(=O)[C@H](CO)NC(=O)[C@H](CCCCN)NC(=O)[C@@H]1CCCN1C(=O)[C@@H](NC(=O)[C@@H](N)CC(=O)O)C(C)C)C(N)=O` (HELM PEPTIDE1{D.V.P.K.S.D.Q.F.[meF].G.L.M.[am]}$$$$V2.0), the figures for the inhibition in test [1] and in test [4] were 11% and 46%, respectively. Moreover, the IC50 in test [2] came to 13 nM. In addition, the EC50 in test [3] came out at 0.038 nM.
On the same counts, the results for `CSCC[C@H](NC(=O)[C@H](CC(C)C)NC(=O)CNC(=O)[C@H](Cc1ccccc1)N(C)C(=O)[C@H](Cc1ccccc1)NC(=O)[C@H](CC(=O)O)NC(=O)[C@H](CC(N)=O)NC(=O)[C@@H]1CCCN1C(=O)[C@H](CC(=O)O)NC(=O)[C@H](C)NC(=O)[C@@H]1CCC(=O)N1)C(N)=O` (HELM PEPTIDE1{[Glp].A.D.P.N.D.F.[meF].G.L.M.[am]}$$$$V2.0) are less than 10%, 87%, 54 nM and 0.15 nM.
The matching figures for `CSCC[C@H](NC(=O)[C@H](CC(C)C)NC(=O)CNC(=O)[C@H](Cc1ccccc1)N(C)C(=O)[C@H](Cc1ccccc1)NC(=O)[C@H](CC(=O)O)NC(=O)[C@H](CC(=O)O)NC(=O)[C@@H]1CCCN1C(=O)[C@H](CC(N)=O)NC(=O)[C@@H]1CCCN1C(=O)[C@@H]1CCC(=O)N1)C(N)=O` (HELM PEPTIDE1{[Glp].P.N.P.D.D.F.[meF].G.L.M.[am]}$$$$V2.0): less than 10%, less than 10%, 19 nM and 0.083 nM.

The values are drawn from ChEMBL document CHEMBL2346651, “Structure-activity relationship study of tachykinin peptides for the development of novel neurokinin-3 receptor selective agonists” (Bioorg Med Chem, 2013).
